From patent US6635265B1, “Materials and methods useful for the control of insect larvae” (University of Florida Research Foundation, Inc., priority 1999, dated 2003)

Experiments:
[1] = system: mosquito larvae; test: Feeding TMOF and its analogue peptides to mosquito larvae (LD50); format: in vivo, Aedes aegypti; conditions: 100 μl microtiter plates, 7 days, diet of autoclaved yeast (1 mg/ml)
Text: TMOF can traverse the gut epithelium, enter the hemolymph and bind a gut receptor (Borovsky, D. and F. Mahmood (1995) “Feeding the mosquito Aedes aegypti with TMOF and its analogs; effect on trypsin biosynthesis and egg development,” Regulatory Peptides 57:273-281.; Borovsky, D., C. A. Powell, J. K. Nayar, J. E. Blalock, and T. K. Hayes (1994) “Characterization and localization of mosquito-gut receptors for trypsin modulating oostatic factor using complementary peptide immunochemistry” FASEB J. 8:350-355.). […] This characteristic permits testing of TMOF and its analogs by feeding them to mosquito and other pest larvae. To determine whether truncated TMOF peptides have an effect on larval growth and development, a series of peptides were synthesized and tested by feeding them to mosquito larvae at concentrations of 0.5 to 5.0 mg/ml (Table 1). Individual, newly hatched Aedes aegypti larvae were maintained in separate microtiter wells on a diet of autoclaved yeast (1 mg/ml). The diet was supplemented with TMOF peptides (Table 1). An identical number of larvae which were maintained on yeast served as a control. […] All control groups survived and larval growth and development was normal. Since larvae swallow only a small portion of the yeast particles that adsorbed the peptides, it is assumed that approximately 1 to 20 ng are taken orally at the high concentrations.

[2] = system: fourth instar Heliothis virescens; test: Feeding TMOF analogs to fourth instar H. virescens: larval weight; format: in vivo; conditions: for larval weight and trypsin biosynthesis (in words): fourth instar larvae fed TMOF analog peptides for 5 days; for Weight Gain / Weight mg ± S.E.M. End: fourth instar larvae fed synthetic food and 0.8 mg of TMOF analogs for 5 days
Protocol: In both cases a reduction in weight gain and trypsin inhibition was noted (Tables 3 and 4).
(§1) Larvae were fed for 5 to 14 days and larval weight and trypsin activity were measured at the end of the experimental periods. […] When first instar larvae were fed for 14 days on analogs 15 and 16 (Table 4), an 18% and 26% reduction in weight was observed.

[3] = system: trypsin biosynthesis; test: Feeding TMOF analogs to fourth instar H. virescens: gut trypsin biosynthesis ([3H]DFP); format: in vivo, Heliothis virescens; conditions: guts of fourth instar larvae after 5 days feeding on 0.8 mg of TMOF analogs
Protocol: as §1

[4] = system: first instar H. virescens larvae; test: Feeding of first instar H. virescens on TMOF analogs for 14 days; format: in vivo, Heliothis virescens; conditions: first instar larvae fed individually 1.6 µg of TMOF analogs for 14 days
[5] = system: trypsin biosynthesis; test: Injecting TMOF-R analogues into second instar Heliothis virescens: trypsin biosynthesis (BApNA); format: in vivo; conditions: second instar larvae, 24 hours after injection
Protocol: TMOF analogues (5 to 8 amino acids in length, and polymers of these analogues) in which Arg was added at the C-terminus were evaluated to determine their effect on larval growth and development. A series of analogues were synthesized and tested by feeding them to mosquito larvae at concentrations of (0.5 to 5.0 mg/ml; Table 4). Concentrations of 2.0 to 0.065 mg/ml were used to feed mosquito larvae and calculate the Lethal Dose at 50% mortality (LD50; Table 4) of the TMOF analogues. […] In both cases larval death and trypsin biosynthesis inhibition was noted (Table 4 and 5). […] The advantage of using short analogues connected by Arg is that they can be digested in the gut into short TMOF analogues that can penetrate the midgut much faster than longer analogues.
Individual second instar larvae of H. virescens were injected with TMOF-R analogues (10 to 0.25 μg per larva) and maintained in separate plastic cups on artificial diet. Twenty-four hours after the injections 3 groups of larvae (3 per group) were assayed for trypsin biosynthesis using BApNA (trypsin specific substrate; Table 5).

[6] = system: first instar larvae S. exigua; test: Inhibition of Spodoptera exigua larval growth by feeding of TMOF; format: in vivo
Protocol: The x-axis represents the TMOF concentration and the y-axis represents percentage of growth inhibition.
Individual, first instar larvae S. exigua were maintained in separate petri dishes and were fed on artificial diet blocks of 50 mg on which different concentrations of TMOF (0 to 100 μg) were adsorbed. Larvae were fed for 6 days and larval length was measured every 24 hours and compared with controls that were not fed TMOF. Each experiment was repeated 10 times.

In the case of YDA (TMOF peptide) [36], the “LD50 mM ± S.E.M.” value [1] is reported as 3 1.6 ± 0.13 mM.
In the case of YDAAP (TMOF peptide) [37], the “LD50 mM ± S.E.M.” value [1] is reported as 3 1.0 ± 0.18 mM, the “larval weight and trypsin biosynthesis (in words)” value [2] is reported as “Reductions in larval weight and trypsin biosynthesis were observed” and the “Weight Gain” value [2] is reported as 179 mg. For the same substance, the “Weight mg ± S.E.M. End” value [2] was 217 ± 9.5 mg, the “Inhibition (% ± S.E.M.) of trypsin biosynthesis” value [3] was 17 ± 1.6% and the “Trypsin μg ± S.E.M.” value [3] was 2.1 ± 0.2 µg. For the same substance, the “Number of Dead Larvae” value [4] was 0, the “Weight (mg) ± S.E.M.” value [4] was 133 ± 7 mg and the “Weight Reduction (%) ± S.E.M.” value [4] was 18 ± 1%. The “Weight Reduction (%) ± S.E.M.” value ([4]; listed as 15) was 18%.
For YDF (TMOF peptide) [38], the “LD50 mM ± S.E.M.” value [1] was 3 0.97 ± 0.11 mM.
With YDFAP (TMOF peptide) [39] the “LD50 mM ± S.E.M.” value [1] was 3 0.74 ± 0.13 mM, the “Weight Gain” value [2] was 164 mg and the “Weight mg ± S.E.M. End” value [2] was 201 ± 12 mg. For the same substance, the “Inhibition (% ± S.E.M.) of trypsin biosynthesis” value [3] was 19 ± 1.5%, the “Trypsin μg ± S.E.M.” value [3] was 2.1 ± 0.2 µg and the “Number of Dead Larvae” value [4] was 1. For the same substance, the “Weight (mg) ± S.E.M.” value [4] was 121 ± 7 mg and the “Weight Reduction (%) ± S.E.M.” value [4] was 26 ± 1.5%.
YDG (TMOF peptide) [40] was tested, and the “LD50 mM ± S.E.M.” value [1] was 3 0.95 ± 0.11 mM.
With YDLAP (TMOF peptide) [41] the “LD50 mM ± S.E.M.” value [1] was 3 0.6 ± 0.05 mM.
YDP (TMOF peptide) [42] was tested, and the “LD50 mM ± S.E.M.” value [1] was 5 2.3 ± 0.4 mM, the “Weight Gain” value [2] was 186.3 mg and the “Weight mg ± S.E.M. End” value [2] was 223.4 ± 16 mg. For the same substance, the “Inhibition (% ± S.E.M.) of trypsin biosynthesis” value [3] was 19 ± 3.2%, the “Trypsin μg ± S.E.M.” value [3] was 2.1 ± 0.3 µg and the “Number of Dead Larvae” value [4] was 0. For the same substance, the “Weight (mg) ± S.E.M.” value [4] was 157 ± 10 mg and the “Weight Reduction (%) ± S.E.M.” value [4] was 4 ± 0.2%.
YDPAA (TMOF peptide) [55] was tested, and the “LD50 mM ± S.E.M.” value [1] was 3 1.6 ± 0.13 mM.
In the case of YDPAF (TMOF peptide) [44], the “LD50 mM ± S.E.M.” value [1] is reported as 3 0.33 ± 0.2 mM.
YDPAFR (TMOF-R analogue peptide) [58] was tested, and the “Inhibition (% ± S.E.M.) of trypsin biosynthesis” value ([5]; 10 μg/injection) was 0 ± 0%.
YDPAL (TMOF peptide) [45] was tested, and the “LD50 mM ± S.E.M.” value [1] was 3 0.52 ± 0.03 mM.
With “YDPAP6 (YDPAPPPPPP; listed as Aedes aegypti) [reference compound]” the “larval growth (larval length) compared with controls” value ([6]; first instar S. exigua fed TMOF (0 to 100 μg) adsorbed on 50 mg artificial diet blocks for 6 days) was “did not grow as fast as the controls”, the “amount of TMOF fed at which maximum growth inhibition occurred” value ([6]; first instar S. exigua, 50 mg diet blocks, 6 days) was 100 µg and the “LD50 mM ± S.E.M.” value [1] was 3 0.2 ± 0.02 mM. The “Inhibition (% ± S.E.M.) of trypsin biosynthesis” value ([5]; 0.25 μg/injection) was 19.5 ± 0.7%, the “Inhibition (% ± S.E.M.) of trypsin biosynthesis” value ([5]; 0.5 μg/injection) was 11 ± 1% and the “Inhibition (% ± S.E.M.) of trypsin biosynthesis” value ([5]; 1 μg/injection) was 25 ± 2%. The “Inhibition (% ± S.E.M.) of trypsin biosynthesis” value ([5]; 10 μg/injection) was 56%.
For YDPAP (TMOF peptide) [11], the “LD50 mM ± S.E.M.” value [1] was 3 1.64 ± 0.03 mM.
YDPAPR (TMOF-R analogue peptide) [57] was tested, and the “Inhibition (% ± S.E.M.) of trypsin biosynthesis” value ([5]; 0.25 μg/injection) was 11 ± 1%, the “Inhibition (% ± S.E.M.) of trypsin biosynthesis” value ([5]; 0.5 μg/injection) was 14 ± 1% and the “Inhibition (% ± S.E.M.) of trypsin biosynthesis” value ([5]; 1 μg/injection) was 31.5 ± 2%. For the same substance, the “Inhibition (% ± S.E.M.) of trypsin biosynthesis” value ([5]; 10 μg/injection) was 53 ± 25%.
YDPAR (TMOF-R analogue peptide) [59] was tested, and the “Inhibition (% ± S.E.M.) of trypsin biosynthesis” value ([5]; 0.5 μg/injection) was 1 ± 0.07%, the “Inhibition (% ± S.E.M.) of trypsin biosynthesis” value ([5]; 1 μg/injection) was 39 ± 2% and the “Inhibition (% ± S.E.M.) of trypsin biosynthesis” value ([5]; 10 μg/injection) was 33.5 ± 9%.
YDPFP (TMOF peptide) [47] was tested, and the “LD50 mM ± S.E.M.” value [1] was 4 1.7 ± 0.4 mM.
YDPGP (TMOF peptide) [48] was tested, and the “LD50 mM ± S.E.M.” value [1] was 5 1.1 ± 0.18 mM, the “larval weight and trypsin biosynthesis (in words)” value [2] was “Reductions in larval weight and trypsin biosynthesis were observed” and the “Weight Gain” value [2] was 163.1 mg. For the same substance, the “Weight mg ± S.E.M. End” value [2] was 199.8 ± 11 mg, the “Inhibition (% ± S.E.M.) of trypsin biosynthesis” value [3] was 17 ± 1% and the “Trypsin μg ± S.E.M.” value [3] was 2.1 ± 0.1 µg. For the same substance, the “Number of Dead Larvae” value [4] was 2, the “Weight (mg) ± S.E.M.” value [4] was 153 ± 10 mg and the “Weight Reduction (%) ± S.E.M.” value [4] was 6 ± 0.4%. The “Weight Reduction (%) ± S.E.M.” value ([4]; listed as 16) was 26%.
YDPLP (TMOF peptide) [49] was tested, and the “LD50 mM ± S.E.M.” value [1] was 3 1.5 ± 0.04 mM.
With YEPAP (TMOF peptide) [50] the “LD50 mM ± S.E.M.” value [1] was 3 0.35 ± 0.02 mM.
With YFPAP (TMOF peptide) [51] the “LD50 mM ± S.E.M.” value [1] was 3 0.64 ± 0.03 mM.
YNPAP (TMOF peptide) [52] was tested, and the “LD50 mM ± S.E.M.” value [1] was 3 0.55 ± 0.03 mM.
With YSF (TMOF peptide) [53] the “LD50 mM ± S.E.M.” value [1] was 3 1.08 ± 0.12 mM.
For YSPAP (TMOF peptide) [54], the “LD50 mM ± S.E.M.” value [1] was 3 1.4 ± 0.03 mM, the “larval weight and trypsin biosynthesis (in words)” value [2] was “Reductions in larval weight and trypsin biosynthesis were observed” and the “Weight Gain” value [2] was 151 mg. For the same substance, the “Weight mg ± S.E.M. End” value [2] was 188 ± 10.6 mg, the “Inhibition (% ± S.E.M.) of trypsin biosynthesis” value [3] was 19 ± 2% and the “Trypsin μg ± S.E.M.” value [3] was 2.0 ± 0.2 µg. For the same substance, the “Number of Dead Larvae” value [4] was 0, the “Weight (mg) ± S.E.M.” value [4] was 168 ± 11 mg and the “Weight Reduction (%) ± S.E.M.” value [4] was 0%.
